Measurements published in ChEMBL document CHEMBL3399934, “Cannabidiol (CBD) and its analogs: a review of their effects on inflammation” (Bioorg Med Chem, 2015).

Experiments:
Cannabinoid receptor 1 [1] = biological target: Cannabinoid receptor 1 (Rattus norvegicus, UniProt P20272); test: Binding affinity to rat CB1 receptor
Cannabinoid receptor 1 [2] = biological target: Cannabinoid receptor 1 (Mus musculus, UniProt P47746); test: Partial agonist activity at mouse CB1 receptor by vas deferens assay
Sequence of Cannabinoid receptor 1 (Mus musculus, UniProt P47746) (P47746 whole entry): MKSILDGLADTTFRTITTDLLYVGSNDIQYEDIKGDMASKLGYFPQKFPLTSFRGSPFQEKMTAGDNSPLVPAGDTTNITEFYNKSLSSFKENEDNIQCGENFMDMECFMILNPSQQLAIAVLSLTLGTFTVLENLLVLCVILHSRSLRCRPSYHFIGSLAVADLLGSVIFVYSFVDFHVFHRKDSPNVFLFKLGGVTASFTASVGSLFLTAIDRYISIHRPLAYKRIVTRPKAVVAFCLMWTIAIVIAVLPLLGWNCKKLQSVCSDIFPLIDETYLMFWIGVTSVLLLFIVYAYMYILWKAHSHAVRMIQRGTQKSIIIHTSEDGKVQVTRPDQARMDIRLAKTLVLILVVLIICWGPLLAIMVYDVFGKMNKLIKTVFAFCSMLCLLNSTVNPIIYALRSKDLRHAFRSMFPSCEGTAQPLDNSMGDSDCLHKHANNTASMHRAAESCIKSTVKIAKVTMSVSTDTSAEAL

Neutrophil = test: Inhibition of human neutrophil migration incubated for 30 mins prior to fMLP challenge by boyden chamber assay; assay type: functional, cell-based
Fibroblast [3] = test: Reduction of sphingomyelin content in Niemann-Pick patient fibroblast at 30 uM; assay type: functional, Homo sapiens; parameters: scale not given: the % may be the effect or the level left
[4] = Reduction of sphingomyelin content in human fibroblast at 30 uM; assay type: ADME, cell-based; parameters: scale not given: the % may be the effect or the level left
Fibroblast [5] = test: Reduction of lecithin content in Niemann-Pick patient fibroblast at 30 uM; assay type: functional, Homo sapiens; parameters: scale not given: the % may be the effect or the level left
[6] = Antiinflammatory activity in human glial cells assessed as reduction of LPS-induced nitrate expression at 1 uM; assay type: functional; parameters: scale not given: the % may be the effect or the level left
[7] = Antiinflammatory activity in human glial cells assessed as reduction of LPS-induced iNOS expression at 1 uM; assay type: functional; parameters: scale not given: the % may be the effect or the level left
[8] = Induction of rat TRPV3 expressed in HEK293 cells assessed as increase of Ca2+ level; assay type: cell-based
Mus musculus [9] = test: Reduction of IL-1beta protein expression in C57BL/6J mouse hippocampus inoculated with human amyloid beta (1 to 42) at 10 ug/kg, ip after 10 days by immunofluorescence analysis; assay type: functional; parameters: scale not given: the % may be the effect or the level left
Mus musculus [10] = test: Reduction of NO release in C57BL/6J mouse hippocampus inoculated with human amyloid beta (1 to 42) at 10 ug/kg, ip after 7 days; assay type: functional; parameters: scale not given: the % may be the effect or the level left
[11] = Antiinflammatory activity in human glial cells assessed as reduction of LPS-induced S100B expression at 1 uM; assay type: functional; parameters: scale not given: the % may be the effect or the level left
Mus musculus [12] = test: Reduction of IL-1beta release in C57BL/6J mouse hippocampus inoculated with human amyloid beta (1 to 42) at 10 ug/kg, ip after 10 days by ELISA; assay type: functional; parameters: scale not given: the % may be the effect or the level left
HEK293 = test: Induction of rat TRPV3 expressed in HEK293 cells assessed as increase of Ca2+ level relative to ionomycin; assay type: cell-based
[13] = Reduction of lecithin content in human fibroblast at 30 uM; assay type: ADME, cell-based; parameters: scale not given: the % may be the effect or the level left
Mus musculus [14] = test: Antiinflammatory activity in Swiss OF1 mouse assessed as reduction of LPS-induced TNF-alpha expression at 10 mg/kg, ip by immunoblotting analysis; assay type: functional; parameters: scale not given: the % may be the effect or the level left; conditions: route intraperitoneal
Mus musculus [15] = test: Reduction of iNOS protein expression in C57BL/6J mouse hippocampus inoculated with human amyloid beta (1 to 42) at 10 ug/kg, ip after 10 days by immunofluorescence analysis; assay type: functional; parameters: scale not given: the % may be the effect or the level left

Sequence of Cannabinoid receptor 1 (Rattus norvegicus, UniProt P20272) (P20272 whole entry): as the sequence (P47746 whole entry) above, with D95E counted along it

Work on `CCCCCCC(C)(C)c1cc(OC)c([C@H]2C=C(CO)[C@H]3C[C@@H]2C3(C)C)c(OC)c1` yielded a Ki (Cannabinoid receptor 1 [1]) greater than 10000 nM.

`C=C(C)[C@@H]1CCC(C)=C[C@H]1c1ccc(CCCCC)cc1O` showed an IC50 (Cannabinoid receptor 1 [2]) of 30.9 nM.

Work on `C=C(C)[C@@H]1CCC(C)=C[C@H]1c1c(C)cc(O)cc1O` yielded an IC50 (Neutrophil) of 33 nM.

In the case of `C=C(C)[C@@H]1CCC(C)=C[C@H]1c1c(O)cc(CCCCC)cc1O` [CANNABIDIOL], the Activity (Fibroblast [3]) is reported as 77%, the Activity [4] is reported as 17% and the Activity (Fibroblast [5]) is reported as 21%. It also gave an Activity [6] greater than 50%, an Activity [7] greater than 50% and an EC50 [8] of 3700 nM. The Activity (Mus musculus [9]) was 50%, the Activity (Mus musculus [10]) was 50% and the IC50 (Neutrophil) was 0.45 nM. For the same compound, the Activity [11] was greater than 50%, the Activity (Mus musculus [12]) was 50% and the Activity (HEK293) was 50%. The Activity [13] was 21%, the Activity (Mus musculus [14]) was 50% and the Activity (Mus musculus [15]) was 50%.
